The record followed here is ChEMBL document CHEMBL1201862, “PubChem BioAssay data set” (2004).

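A five-concentration, 48-hour dose response in 96-well plates underlies each endpoint, interpolated linearly between surrounding concentrations. At the GI50, growth is halved.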 Activity calls are given as the source filed them. Cut-off read from the data, not from the text of the source: active = GI50 up to about 1.1 µM and inactive = higher.

Among the test systems are HCC 2998; SK-MEL-28; MDA-MB-435; MDA-N; A549; EKVX; SNB-19; SK-MEL-5; SF-295; TK-10; NCI-H226; KM12; UO-31; SK-OV-3; HOP-62; CAKI-1; HCT-15; Malme-3M; SN12C.
Common to all, as to assay: inhibition of tumour cell growth, NCI panel, 48 h

With `N/C(=N\c1ccccc1)c1ccccc1N`, the GI50 in the experiment with HCC 2998 was > 100 µM (inactive); with SK-MEL-28, 19.6 µM (inactive); in the experiment on MDA-MB-435, > 100 µM (inactive); in the experiment with MDA-N, > 100 µM (inactive); in the experiment with A549, > 100 µM (inactive); in the experiment with EKVX, > 100 µM (inactive). The GI50 with SNB-19, in the experiment on SK-MEL-5, with SF-295, in the experiment with TK-10, in the experiment on NCI-H226 and in the experiment on KM12 was > 100 µM (inactive) throughout. Besides, the GI50 was > 100 µM (inactive) in the experiment on UO-31; > 100 µM (inactive) in the experiment on SK-OV-3; > 100 µM (inactive) in the experiment with HOP-62; > 100 µM (inactive) in the experiment on CAKI-1; above 100 µM in the experiment with HCT-15.
As to `C[C@H](NC(=O)C(C)(Cc1ccc(O)cn1)NC(=O)c1ccccc1)c1ccccc1` (stereo not given in full), the GI50 with HCC 2998, in the experiment on SK-MEL-28, with MDA-MB-435, in the experiment on MDA-N, in the experiment with A549 and with EKVX was > 100 µM (inactive) in each case. In addition, the GI50 in the experiment on SNB-19, in the experiment on SK-MEL-5, in the experiment with SF-295, in the experiment with TK-10, in the experiment on NCI-H226 and with Malme-3M was > 100 µM (inactive) in each case. In addition, the GI50 in the experiment with SN12C is > 100 µM (inactive); in the experiment on KM12, > 100 µM (inactive); with UO-31, > 100 µM (inactive); in the experiment with HOP-62 it was > 100 µM (inactive); in the experiment on CAKI-1, > 100 µM (inactive); in the experiment with HCT-15 it was above 100 µM.
Take `Cc1c(C(=O)OCc2ccccc2)[n+]([O-])c2ccccc2[n+]1[O-]`: the GI50 with HCC 2998 was 30.8 µM (inactive); in the experiment with SK-MEL-28 it was 66.1 µM (inactive); in the experiment with MDA-MB-435, 26.4 µM (inactive); with MDA-N, 41.6 µM (inactive); in the experiment with A549, 22.2 µM (inactive); with EKVX, 25.8 µM (inactive). Besides, the GI50 is 57.3 µM (inactive) with SNB-19; 22 µM (inactive) in the experiment on SK-MEL-5; 32.7 µM (inactive) in the experiment with SF-295; 33.2 µM (inactive) with TK-10; 14.5 µM (inactive) with NCI-H226; 31.3 µM (inactive) in the experiment with SN12C. For the same compound, the GI50 with KM12 was 28.1 µM (inactive); with UO-31 it was 27.8 µM (inactive); in the experiment on SK-OV-3 it was 28 µM (inactive); in the experiment on HOP-62 it was 22.3 µM (inactive); with CAKI-1, 24.5 µM (inactive); in the experiment with HCT-15 it was 40.9 µM.
`COc1ccc(-c2nc(O)c3ccccc3n2)cc1OC`: the GI50 in the experiment with HCC 2998 is > 100 µM (inactive); in the experiment on MDA-MB-435 it was > 100 µM (inactive); in the experiment with MDA-N, > 100 µM (inactive); with A549, 94.4 µM (inactive); in the experiment on EKVX, 18.1 µM (inactive); in the experiment on SNB-19, 31.2 µM (inactive). Moreover, the GI50 is > 100 µM (inactive) with SK-MEL-5; 50.8 µM (inactive) in the experiment on SF-295; 18.4 µM (inactive) in the experiment with NCI-H226; > 100 µM (inactive) in the experiment with Malme-3M; 26.5 µM (inactive) with SN12C; > 100 µM (inactive) in the experiment on KM12. In addition, the GI50 with UO-31 is > 100 µM (inactive); with SK-OV-3, 34.2 µM (inactive); with HOP-62, 33.8 µM (inactive); with CAKI-1 it was > 100 µM (inactive); in the experiment with HCT-15, 50 µM.
Turning to `C1CNCCNCCN1`, the GI50 in the experiment on HCC 2998, with SK-MEL-28, with MDA-MB-435, with MDA-N, in the experiment on A549 and in the experiment on EKVX was > 100 µM (inactive) in each case. The GI50 in the experiment on SNB-19, in the experiment with SK-MEL-5, with SF-295, in the experiment on TK-10, in the experiment on NCI-H226 and in the experiment with SN12C was > 100 µM (inactive) each time. For the same compound, the GI50 in the experiment on KM12 was > 100 µM (inactive); in the experiment with UO-31, > 100 µM (inactive); in the experiment on HOP-62, > 100 µM (inactive); in the experiment with CAKI-1, > 100 µM (inactive); in the experiment with HCT-15, above 100 µM.
In the case of `CN1C(=O)C2(C=CC(O)CC2)c2ccccc21` (stereo not given), the GI50 in the experiment on HCC 2998, in the experiment on SK-MEL-28, in the experiment with MDA-MB-435, in the experiment on MDA-N, in the experiment on A549 and in the experiment on EKVX was > 100 µM (inactive) throughout. Also, the GI50 in the experiment with SNB-19, in the experiment on SK-MEL-5, in the experiment with SF-295, in the experiment on TK-10, in the experiment on NCI-H226 and with SN12C was > 100 µM (inactive) each time. In addition, the GI50 was > 100 µM (inactive) with KM12; > 100 µM (inactive) with UO-31; > 100 µM (inactive) in the experiment on SK-OV-3; > 100 µM (inactive) with HOP-62; > 100 µM (inactive) with CAKI-1; above 100 µM in the experiment with HCT-15.
`COC(=O)[C@]1(Cc2ccc3ccccc3c2)CCCCCCN1C(=O)c1ccccc1`: the GI50 was > 34 µM (inactive) with HCC 2998; > 37.2 µM (inactive) with SK-MEL-28; > 37.2 µM (inactive) in the experiment with MDA-MB-435; > 38 µM (inactive) in the experiment on MDA-N; > 100 µM (inactive) in the experiment on A549; > 27.7 µM (inactive) in the experiment with EKVX. The GI50 in the experiment on SNB-19 was > 44.6 µM (inactive); in the experiment on SK-MEL-5 it was > 100 µM (inactive); in the experiment on SF-295, > 23.4 µM (inactive); in the experiment on TK-10 it was > 36.6 µM (inactive); in the experiment with NCI-H226 it was > 37.9 µM (inactive); with Malme-3M it was > 38.5 µM (inactive). Besides, the GI50 is > 37 µM (inactive) in the experiment on SN12C; > 34.1 µM (inactive) in the experiment with KM12; > 21 µM (inactive) with UO-31; > 49.1 µM (inactive) in the experiment on SK-OV-3; > 30.1 µM (inactive) with HOP-62; above 31.8 µM in the experiment on HCT-15.
Regarding `COC(=O)c1cccc(C)c1C1CN=NC12Cc1cc(C)cc(C)c1C2=O` (stereo not given), the GI50 was 26.5 µM (inactive) in the experiment on HCC 2998; 60.4 µM (inactive) in the experiment with SK-MEL-28; 30.1 µM (inactive) with MDA-MB-435; 26.7 µM (inactive) in the experiment on MDA-N; 33.5 µM (inactive) with A549; 26.3 µM (inactive) in the experiment with EKVX. Besides, the GI50 in the experiment with SNB-19 was 48.9 µM (inactive); with SK-MEL-5, 31.6 µM (inactive); with TK-10, > 100 µM (inactive); in the experiment with NCI-H226, 61.5 µM (inactive); with Malme-3M, 32.2 µM (inactive); in the experiment on SN12C, 37.2 µM (inactive). For the same compound, the GI50 in the experiment on KM12 is 34.4 µM (inactive); with UO-31, 55.1 µM (inactive); in the experiment on HOP-62, 53 µM (inactive); with CAKI-1, 78.2 µM (inactive); with HCT-15, 51.1 µM.
